Assay results from ChEMBL document CHEMBL1201862, “PubChem BioAssay data set” (2004).
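Cells were grown in 96-well plates and exposed to each compound for 48 hours at five concentrations; endpoints were interpolated linearly between bracketing concentrations, or set to the highest concentration if not reached. Abbreviation: GI50, concentration required for 50% inhibition of growth.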 The source made the active and inactive calls. Rule as the data show it: active = GI50 up to about 1.1 µM and inactive = higher.

Tests used:
Experiment in all cases: inhibition of tumour cell growth, NCI panel, 48 h
[1] = system: U-251
[2] = system: SF-539
[3] = system: CAKI-1
[4] = system: LOX IMVI
[5] = system: 786-0
[6] = system: OVCAR-3
[7] = system: M14
[8] = system: HL-60
[9] = system: DU-145
[10] = system: MDA-N
[11] = system: OVCAR-5
[12] = system: IGROV-1
[13] = system: NCI-H522
[14] = system: HCT-116
[15] = system: Malme-3M
[16] = system: SK-OV-3
[17] = system: UACC-257
[18] = system: Hs-578T
[19] = system: OVCAR-4
[20] = system: NCI-H226

Q: With `Cc1cccc2c(N)c3cccc(C(=O)NCCN4CCOCC4)c3nc12` as the compound, how does the GI50 [1] read?
A: 0.531 µM (active)

Q: What about the GI50 [2] of the same compound?
A: 0.171 µM (active)

Q: And the GI50 [3]?
A: 0.675 µM (active)

Q: And the GI50 [4]?
A: 0.23 µM (active)

Q: And the GI50 [5]?
A: 0.218 µM (active)

Q: What about the GI50 [6] of the same compound?
A: 1.47 µM (inactive)

Q: And the GI50 [7]?
A: 0.495 µM (active)

Q: What about the GI50 [8] of the same compound?
A: 0.362 µM (active)

Q: What about the GI50 [9] of the same compound?
A: 0.482 µM (active)

Q: And the GI50 [10]?
A: 0.6 µM (active)

Q: What about the GI50 [11] of the same compound?
A: 0.627 µM (active)

Q: And the GI50 [12]?
A: 0.224 µM (active)

Q: What about the GI50 [13] of the same compound?
A: 0.182 µM (active)

Q: What about the GI50 [14] of the same compound?
A: 0.0889 µM (active)

Q: What about the GI50 [15] of the same compound?
A: 0.28 µM (active)

Q: And the GI50 [16]?
A: 1.05 µM (active)

Q: And the GI50 [17]?
A: 0.912 µM (active)

Q: What about the GI50 [18] of the same compound?
A: 0.0849 µM (active)

Q: What about the GI50 [19] of the same compound?
A: 0.762 µM (active)

Q: `CN(C)CCCNC(=O)N/N=C\c1cccc2ccccc12` was tested. Which GI50 [2] did it give?
A: > 10 µM (inactive)

Q: What about the GI50 [4] of the same compound?
A: > 10 µM (inactive)

Q: What about the GI50 [7] of the same compound?
A: > 10 µM (inactive)

Q: And the GI50 [8]?
A: > 10 µM (inactive)

Q: And the GI50 [9]?
A: > 10 µM (inactive)

Q: And the GI50 [10]?
A: > 10 µM (inactive)

Q: What about the GI50 [11] of the same compound?
A: > 10 µM (inactive)

Q: What about the GI50 [12] of the same compound?
A: > 10 µM (inactive)

Q: What about the GI50 [13] of the same compound?
A: > 10 µM (inactive)

Q: And the GI50 [14]?
A: > 10 µM (inactive)

Q: What about the GI50 [15] of the same compound?
A: > 10 µM (inactive)

Q: What about the GI50 [16] of the same compound?
A: > 10 µM (inactive)

Q: What about the GI50 [18] of the same compound?
A: > 10 µM (inactive)

Q: And the GI50 [19]?
A: > 10 µM (inactive)

Q: For `O=C(O)CCCN1CCCCC1`, which GI50 [1] is on record?
A: > 100 µM (inactive)

Q: What about the GI50 [3] of the same compound?
A: > 100 µM (inactive)

Q: What about the GI50 [4] of the same compound?
A: > 100 µM (inactive)

Q: What about the GI50 [5] of the same compound?
A: > 100 µM (inactive)

Q: And the GI50 [20]?
A: > 100 µM (inactive)

Q: What about the GI50 [6] of the same compound?
A: > 100 µM (inactive)

Q: And the GI50 [7]?
A: > 100 µM (inactive)

Q: And the GI50 [9]?
A: > 100 µM (inactive)

Q: What about the GI50 [10] of the same compound?
A: > 100 µM (inactive)

Q: And the GI50 [11]?
A: > 100 µM (inactive)

Q: What about the GI50 [12] of the same compound?
A: > 100 µM (inactive)

Q: And the GI50 [13]?
A: > 100 µM (inactive)

Q: And the GI50 [14]?
A: > 100 µM (inactive)

Q: What about the GI50 [15] of the same compound?
A: > 100 µM (inactive)

Q: What about the GI50 [17] of the same compound?
A: > 100 µM (inactive)

Q: And the GI50 [18]?
A: > 100 µM (inactive)

Q: What about the GI50 [19] of the same compound?
A: > 100 µM (inactive)

Q: How did the GI50 [1] turn out when `O=[N+]([O-])c1sc2ccc(Cl)cc2c1Nc1ccc(Cl)cc1` was run?
A: > 100 µM (inactive)

Q: What about the GI50 [2] of the same compound?
A: > 100 µM (inactive)

Q: And the GI50 [4]?
A: > 100 µM (inactive)

Q: What about the GI50 [5] of the same compound?
A: > 100 µM (inactive)

Q: And the GI50 [20]?
A: > 100 µM (inactive)

Q: What about the GI50 [6] of the same compound?
A: > 100 µM (inactive)

Q: And the GI50 [7]?
A: > 100 µM (inactive)

Q: What about the GI50 [8] of the same compound?
A: > 100 µM (inactive)

Q: And the GI50 [9]?
A: > 100 µM (inactive)

Q: And the GI50 [11]?
A: > 100 µM (inactive)

Q: And the GI50 [12]?
A: > 100 µM (inactive)

Q: What about the GI50 [13] of the same compound?
A: > 100 µM (inactive)

Q: And the GI50 [15]?
A: > 100 µM (inactive)

Q: What about the GI50 [16] of the same compound?
A: > 100 µM (inactive)

Q: And the GI50 [18]?
A: > 100 µM (inactive)

Q: What about the GI50 [19] of the same compound?
A: 2.55 µM (inactive)

Q: Which GI50 [1] does the source give for `O=C(O)C(/C=C/c1ccccc1)c1ccccc1` (stereo not drawn) here?
A: > 100 µM (inactive)

Q: And the GI50 [2]?
A: > 100 µM (inactive)

Q: What about the GI50 [4] of the same compound?
A: > 100 µM (inactive)

Q: And the GI50 [5]?
A: > 100 µM (inactive)

Q: What about the GI50 [20] of the same compound?
A: > 100 µM (inactive)

Q: And the GI50 [6]?
A: > 100 µM (inactive)

Q: And the GI50 [7]?
A: > 100 µM (inactive)

Q: What about the GI50 [8] of the same compound?
A: 9.25 µM (inactive)

Q: What about the GI50 [9] of the same compound?
A: > 100 µM (inactive)

Q: And the GI50 [10]?
A: > 100 µM (inactive)

Q: What about the GI50 [11] of the same compound?
A: > 100 µM (inactive)

Q: What about the GI50 [12] of the same compound?
A: > 100 µM (inactive)

Q: What about the GI50 [13] of the same compound?
A: 69.7 µM (inactive)

Q: And the GI50 [14]?
A: > 100 µM (inactive)

Q: What about the GI50 [15] of the same compound?
A: > 100 µM (inactive)

Q: What about the GI50 [16] of the same compound?
A: > 100 µM (inactive)

Q: And the GI50 [17]?
A: > 100 µM (inactive)

Q: And the GI50 [18]?
A: > 100 µM (inactive)

Q: For `CC(C)(C)c1ccc(-c2nnc(-c3cc(C#N)cc(-c4nnc(-c5ccc(C(C)(C)C)cc5)o4)c3)o2)cc1`, which GI50 [1] is on record?
A: > 100 µM (inactive)

Q: And the GI50 [3]?
A: > 100 µM (inactive)

Q: And the GI50 [4]?
A: > 100 µM (inactive)

Q: And the GI50 [5]?
A: 50.2 µM (inactive)

Q: And the GI50 [20]?
A: > 100 µM (inactive)

Q: What about the GI50 [6] of the same compound?
A: > 100 µM (inactive)

Q: And the GI50 [7]?
A: > 100 µM (inactive)

Q: What about the GI50 [9] of the same compound?
A: > 100 µM (inactive)

Q: And the GI50 [10]?
A: > 100 µM (inactive)

Q: What about the GI50 [11] of the same compound?
A: > 100 µM (inactive)

Q: What about the GI50 [12] of the same compound?
A: > 100 µM (inactive)

Q: What about the GI50 [13] of the same compound?
A: > 100 µM (inactive)

Q: And the GI50 [14]?
A: > 100 µM (inactive)

Q: What about the GI50 [15] of the same compound?
A: > 100 µM (inactive)

Q: And the GI50 [16]?
A: > 100 µM (inactive)

Q: And the GI50 [17]?
A: > 100 µM (inactive)

Q: And the GI50 [18]?
A: 33 µM (inactive)

Q: What about the GI50 [19] of the same compound?
A: > 100 µM (inactive)

Q: `CC(O[Si](c1ccccc1)(c1ccccc1)C(C)(C)C)[C@H](NC(=O)OC(C)(C)C)C(=O)O` (stereo partly drawn) was tested. Which GI50 [1] did it give?
A: 33.1 µM (inactive)

Q: And the GI50 [3]?
A: 40.3 µM (inactive)

Q: And the GI50 [5]?
A: 42.4 µM (inactive)

Q: What about the GI50 [7] of the same compound?
A: 38.3 µM (inactive)

Q: What about the GI50 [8] of the same compound?
A: 27.3 µM (inactive)

Q: And the GI50 [9]?
A: > 10 µM (inactive)

Q: And the GI50 [10]?
A: 38.7 µM (inactive)

Q: And the GI50 [11]?
A: 75.3 µM (inactive)

Q: What about the GI50 [12] of the same compound?
A: 20.6 µM (inactive)

Q: What about the GI50 [14] of the same compound?
A: 34.2 µM (inactive)

Q: What about the GI50 [15] of the same compound?
A: 50 µM (inactive)

Q: What about the GI50 [16] of the same compound?
A: 30.4 µM (inactive)

Q: And the GI50 [17]?
A: 36.1 µM (inactive)

Q: And the GI50 [18]?
A: 57.1 µM (inactive)

Q: What about the GI50 [19] of the same compound?
A: 26.4 µM (inactive)

Q: Which GI50 [1] does the source give for `CON(C)C(=O)C(C)N(Cc1ccccc1)Cc1ccccc1` (stereo not drawn) here?
A: > 100 µM (inactive)

Q: What about the GI50 [2] of the same compound?
A: > 100 µM (inactive)

Q: And the GI50 [5]?
A: > 100 µM (inactive)

Q: And the GI50 [20]?
A: 64.6 µM (inactive)

Q: And the GI50 [6]?
A: 88.3 µM (inactive)

Q: What about the GI50 [7] of the same compound?
A: 68.7 µM (inactive)

Q: And the GI50 [8]?
A: 46.9 µM (inactive)

Q: And the GI50 [9]?
A: > 100 µM (inactive)

Q: What about the GI50 [10] of the same compound?
A: > 100 µM (inactive)

Q: And the GI50 [11]?
A: > 100 µM (inactive)

Q: And the GI50 [12]?
A: 88.5 µM (inactive)

Q: And the GI50 [14]?
A: 50.2 µM (inactive)

Q: What about the GI50 [15] of the same compound?
A: > 100 µM (inactive)

Q: And the GI50 [16]?
A: 66.8 µM (inactive)

Q: And the GI50 [17]?
A: 82 µM (inactive)

Q: And the GI50 [18]?
A: 50 µM (inactive)
